The conditions of data set [1]: cited from earlier work.
For data set [2] the following is noted: cited from earlier work. This is another data set of the same source.
The nature of data set [3]: Chemical parameters (assay and impurities) of the lyophilised formulations. It is filed as physicochemical. As to the method: The formulations were analysed and the data is tabulated below: […]

Read-outs that look alike come from different tables or passages of the source.

We go through one compound from US20120283304A1, “Formulations of Temozolomide for Parenteral Administration” (SAHAJ LIFE SCIENCES PVT. LTD., priority 2009, published 2012).

For the compound `Cn1nnc2c(C(N)=O)ncn2c1=O` [Temozolomide, 3-methyl-8-carbamoyl-imidazo[5,1-d]-1,2,3,5-tetrazin-4(3H)-one], the Stability entry in data set [1] (acidic pH less than 5) is “stable”. For the same compound, the Stability entry in data set [1] (pH greater than 7) is reported as “unstable”. Moreover, the Solubility in water entry in data set [2] is on record as “only slightly soluble”. For the same compound, in data set [3], the “% Assay” value came to 100.3%, the “% Impurities AIC” value is recorded as 0.02%, the “% Impurities Any other maximum impurity” value is reported as “Not detected” and the “% Impurities MTC-1” value is “Not detected”. For the same compound, the “% Impurities Total impurities” value in data set [3] was determined as 0.04%.
